{"source": "patent US20230158071A1", "about": "“TUMOR COMBINED IMMUNOTHERAPY” (CRAGE medical Co., Limited, priority 2018, published 2023)", "key": {"4T1-EGFRvIII cells": {"tested_on": "4T1-EGFRvIII cells", "test": "CCK8 proliferation assay, olaparib on 4T1-EGFRvIII breast cancer cells", "format": "cell-based, mouse", "text": "Since the EGFR287-302 epitope is only exposed in EGFRvIII or tumors overexpressing EGFR, this epitope is hidden in normal tissues (Gan H K et al., Targeting of a conformationally exposed, tumor-specific epitope of EGFR as a strategy for cancer therapy. Cancer Res. 2012, 72(12):2924-2930), conventional methods in molecular biology are used to establish E0771, 4T1 mouse breast cancer cell models (E0771-EGFRvIII, 4T1-EGFRvIII) that overexpress mouse EGFR inserted with amino acid epitope at positions 287-302 of human EGFR. Subsequent research is performed to screen EGFRvIII target-positive cells by cell flow cytometry (FIG. 2A). E0771, 4T1 cells are purchased from the American Type Culture Collection (ATCC).\nAs an effective inhibitor of PARP1, olaparib may inhibit PARP1 to participate in DNA damage repair process. In mouse breast cancer cell lines and mouse T cells and CART cells, different levels of PARP1 expression are detected (FIG. 2B). Therefore, CCK8 proliferation assay is required to detect the effect of olaparib on proliferation of tumor cells and CART cells.\n806-m28Z CAR-T cells in Example 1 are taken to spread in a 96-well plate with 1×10^4 cells per well and 100 μl medium. Breast cancer cells E0771-EGFRvIII and 4T1-EGFRvIII are taken to spread in a 96-well plate with 1×10^4 cells per well and 100 μl medium. Different concentrations of olaparib are taken to add to the cells to make 10 concentration gradients (i.e., the treatment concentrations of olaparib are respectively 50 μM, 20 μM, 10 μM, 5 μM, 2.5 μM, 1 μM, 0.1 μM, 0.01 μM, 0.001 μM, 0 μg/ml). After 48 hours of drug treatment for cells of different groups, 10 μl of CCK8 substrate color reagent (Dojindo) is added to each well; after incubating for 1 hour at 37° C., the absorbance at 450 nm is measured by a microplate reader, calculating the cell viability respectively.\nThe formula for calculating the cell viability is as follows:\nCell viability (%)=[A (adding drug)−A (blank)]/[A (without adding drug)−A (blank)]"}, "806-mCD28z-CAR-T cells": {"tested_on": "806-mCD28z-CAR-T cells", "test": "Flow cytometry (CellTrace) of CAR-T proliferation in co-culture with breast cancer cells", "format": "cell-based, mouse", "details": "co-incubation 1:1, 16 hours", "procedure": "The experimental groups are as follows: 806-mCD28z-CAR-T group (or denoted as 806-28Z), olaparib pretreatment group, and olaparib combined treatment group;\nThe olaparib pretreatment group comprises: 806-mCD28z-CAR-T+1 μM olaparib pretreatment group (or denoted as 806-28Z+Olaparib 1 μM pretreatment), 806-mCD28z-CAR-T+5 μM olaparib pretreatment group (or denoted as 806-28Z+Olaparib 5 μM pretreatment);\nOlaparib combined treatment group comprises: 806-mCD28z-CAR-T+1 μM olaparib combined treatment group (or denoted as 806-28Z+Olaparib 1 μM), 806-mCD28z-CAR-T+5 μM olaparib combined treatment group (or denoted as 806-28Z+Olaparib 5 μM).\nBefore the co-incubation experiment, 806-mCD28z-CAR-T cells need to be stained with CellTrace dye. […]\nOlaparib pretreatment group: different concentrations of olaparib (1 μM, 5 μM) are respectively added to a medium for culturing E0771-EGFRvIII or 4T1-EGFRvIII tumor cells, after culturing at 37° C. for 24 hours, the cells are treated with trypsin and resuspended in fresh medium. 806-mCD28z-CAR T cells in Example 1 are taken to co-incubate with E0771-EGFRVIII or 4T1-EGFRvIII cells pretreated with different concentrations of olaparib at a ratio of 1:1; 16 hours later, the proliferation of CAR-T cells and the expression levels of the T cell exhaustion-related proteins PD1, LAG3 and TIM3 on the surface of CAR-T cells are detected by flow cytometry. […]"}}}
{"smiles": "O=C(c1cc(Cc2n[nH]c(=O)c3ccccc23)ccc1F)N1CCN(C(=O)C2CC2)CC1", "note": "[olaparib]", "values": [{"measurement": "inhibition rate of proliferation of 4T1-EGFRvIII cell line", "setting": "4T1-EGFRvIII cells; 1 μM and higher concentration of olaparib, 48 hours, CCK8", "value": "30-40%"}, {"measurement": "proliferation of 4T1-EGFRvIII cells", "setting": "4T1-EGFRvIII cells; 1 μM olaparib", "value": "inhibited"}, {"measurement": "proliferation of 4T1-EGFRvIII cells", "setting": "4T1-EGFRvIII cells; 504 olaparib", "value": "inhibited"}, {"measurement": "proliferation of CART cells", "setting": "806-mCD28z-CAR-T cells; olaparib combined treatment group (1 μM, 5 μM), not statistically significant", "value": "slightly inhibited"}, {"measurement": "proliferation of CART cells", "setting": "806-mCD28z-CAR-T cells; olaparib pretreatment group (1 μM, 5 μM)", "value": "not significantly affected"}]}
